According to publication PMC3274548, “Toward New Therapeutics for Skin and Soft Tissue Infections: Propargyl-Linked Antifolates Are Potent Inhibitors of MRSA and Streptococcus pyogenes” (PLoS ONE, 2012):
Converted amounts (≈) assume the structure as drawn. Read-outs that look alike come from different tables or passages of the source.

Legend:
VISA Mu50 = experiment: MIC against clinical isolates of MRSA; format: cell-based; conditions: Staphylococcus aureus, read-out: MIC VISA Mu50
hVISA Mu3 = experiment: MIC against clinical isolates of MRSA; format: cell-based; conditions: Staphylococcus aureus, read-out: MIC hVISA Mu3
USA100 HA-MRSA = experiment: MIC against clinical isolates of MRSA; format: cell-based; conditions: Staphylococcus aureus
[1] = test system: TMP-SMZ-resistant MRSA strain; experiment: MIC against clinical isolates of MRSA; format: cell-based; conditions: Staphylococcus aureus, read-out: MIC TMP-SMZ^R
USA300 CA-MRSA = experiment: MIC against clinical isolates of MRSA; format: cell-based, Staphylococcus aureus
HA-MRSA = experiment: MIC against clinical isolates of MRSA; format: cell-based; conditions: Staphylococcus aureus, read-out: MIC HA-MRSA
MRSA (S.aureus 13709) = experiment: MIC, broth microdilution with Alamar Blue; format: cell-based, Staphylococcus aureus; conditions: for Selectivity MRSA: IC50 (MCF10)/MIC (pathogen), both values in µM
Description: (§1) Stock solutions of standard antibiotics and test compounds were made at 50 mM in DMSO. […] For susceptibility testing, 10 µL of glycerol stock was suspended in a 10 mL shake flask culture of chemically defined Isosensitest broth (Oxoid) supplemented with 2% w/v glucose. A sample of the shake flask culture was diluted to 1×10^6 cells/mL in media and added to 96-well test plates (100 µL per well) containing test compounds dispensed in DMSO (2 µL) using serial two-fold dilutions. After an incubation period (30°C) determined from the strain specific doubling time, a 0.03% w/v aqueous solution of resazurin (10 µL) was added and the plates were allowed to incubate; each well was then scored for dye reduction.

S. pyogenes DHFR = S. pyogenes DHFR (Streptococcus pyogenes, UniProt Q9A091); experiment: biochemical; format: biochemical; conditions: for Selectivity (h/Sp): IC50 (human)/IC50 (pathogen); for IC50: S. pyogenes DHFR, average of at least three measurements, read-out: IC50 (nM) Sp
S. pyogenes DHFR, sequence (Q9A091 entry or part of it): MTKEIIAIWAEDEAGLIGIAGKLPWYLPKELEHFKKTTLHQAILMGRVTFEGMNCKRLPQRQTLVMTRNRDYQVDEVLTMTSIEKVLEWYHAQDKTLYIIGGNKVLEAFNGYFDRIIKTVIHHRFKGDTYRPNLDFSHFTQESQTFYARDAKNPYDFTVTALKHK
Description: (§2) S. aureus DHFR was cloned, expressed and purified as previously described. Briefly, the DHFR gene was inserted into vector pET41 with a His8 tag for purification. The protein was expressed in E. coli BL21 (DE3) cells. […] The protein was concentrated to ∼5 mg/mL. S. pyogenes DHFR was cloned using PCR from genomic DNA and inserted in vector pET-41.
(§3) Enzyme inhibition assays were performed by monitoring the rate of NADPH oxidation by the DHFR enzyme at an absorbance of 340 nm over five minutes. Assays were performed in the presence of saturating concentrations of NADPH (100 µM) and initiated with dihydrofolate (1 mM). All assays were completed at 25°C in a buffer containing 20 mM TES pH 7.0, 50 mM KCl, 10 mM 2-mercaptoethanol, 0.5 mM EDTA and 1 mg/mL BSA. Inhibition was measured at least three times with inhibitor concentrations near the IC50 value and the average IC50 value is reported with a standard deviation.

S. aureus DHFR = molecular target: T1, S. aureus DHFR (Staphylococcus aureus, UniProt P0A017); experiment: biochemical; format: biochemical
T1 construct: the DHFR gene was inserted into vector pET41 with a His8 tag for purification; His8; made in house; host or cells: E. coli BL21 (DE3)
T1 sequence (P0A017 whole entry): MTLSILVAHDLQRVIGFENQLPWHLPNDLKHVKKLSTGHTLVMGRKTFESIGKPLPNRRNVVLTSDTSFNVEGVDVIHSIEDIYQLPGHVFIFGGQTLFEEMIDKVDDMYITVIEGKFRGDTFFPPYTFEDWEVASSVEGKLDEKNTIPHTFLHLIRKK
Description: as §2, §3

HepG2 cells = experiment: Mammalian cell toxicity (Alamar Blue); format: cell-based; conditions: Homo sapiens, cytotoxicity, 4 h incubation
Description: Fetal calf serum used in these assays was lot matched throughout. All cultures were maintained under a humidified 5% CO2 atmosphere at 37°C, had media refreshed twice weekly and were subcultured by trypsinization and resuspension at a ratio of 1∶5 each week. Toxicity assays were conducted between passages 10–20. Target compound toxicity was measured by incubating the test compound with the cells for 4 h, washing the cells and finally treating the cells with Alamar Blue. After 12–24 h, the fluorescence of the reduced dye was measured. Fluorescence intensity as a function of test compound concentration was fit to the Fermi equation, using non-linear least squares regression analysis, to estimate IC50 values.

MCF-10 cells = experiment: Mammalian cell toxicity (Alamar Blue); format: cell-based; conditions: read-out: IC50 MCF-10
Description: Adherent cell lines were maintained in Eagle's Minimal Essential Media (Sigma-Aldrich, St. Louis, MO, USA) with 2 mM glutamine and Earle's Balanced Salt Solution (HyClone, Logan, UT, USA) adjusted to contain 1.5 g/L sodium bicarbonate, 0.1 mM non-essential amino acids, 1 mM sodium pyruvate and 10% fetal calf serum. Fetal calf serum used in these assays was lot matched throughout. […] Toxicity assays were conducted between passages 10–20. Target compound toxicity was measured by incubating the test compound with the cells for 4 h, washing the cells and finally treating the cells with Alamar Blue. After 12–24 h, the fluorescence of the reduced dye was measured. Fluorescence intensity as a function of test compound concentration was fit to the Fermi equation, using non-linear least squares regression analysis, to estimate IC50 values.

Human DHFR = molecular target: T2, Human DHFR (Homo sapiens, UniProt P00374); experiment: DHFR enzyme inhibition assay (NADPH oxidation, 340 nm); format: biochemical
T2 sequence (P00374 1-187): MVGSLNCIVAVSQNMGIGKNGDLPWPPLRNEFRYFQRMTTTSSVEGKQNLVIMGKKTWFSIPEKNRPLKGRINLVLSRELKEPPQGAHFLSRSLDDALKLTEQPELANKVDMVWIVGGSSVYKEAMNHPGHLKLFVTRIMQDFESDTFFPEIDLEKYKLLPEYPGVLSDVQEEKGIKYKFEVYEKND
Description: as §3

Streptococcus pyogenes = experiment: MIC, broth microdilution with Alamar Blue; format: cell-based; conditions: for Selectivity S. pyogenes: IC50 (MCF10)/MIC (pathogen), both values in µM
Description: as §1

[2] = Staphylococcus aureus, MRSA, 10% fetal calf serum, read-out: MIC MRSA +FCS
[3] = Staphylococcus aureus, MRSA, 10% fetal calf serum, value in parentheses, read-out: MIC MRSA +FCS
[4] = Staphylococcus aureus, MRSA, value in parentheses, read-out: MIC MRSA
[5] = Staphylococcus aureus, MRSA, read-out: MIC MRSA
[6] = S. aureus DHFR, average of at least three measurements, read-out: IC50 (nM) Sa
[7] = Homo sapiens, MCF10, cytotoxicity, 4 h incubation
[8] = human DHFR, average of at least three measurements, read-out: IC50 (nM) Human
[9] = Streptococcus pyogenes, 10% FCS, read-out: MIC S. pyogenes +FCS
[10] = Streptococcus pyogenes, 10% FCS, value in parentheses, read-out: MIC S. pyogenes +FCS
[11] = Streptococcus pyogenes, value in parentheses, read-out: MIC S. pyogenes
[12] = Streptococcus pyogenes, read-out: MIC S. pyogenes
[13] = 10% fetal calf serum, value in parentheses, read-out: MIC MRSA +FCS
[14] = value in parentheses, read-out: MIC MRSA
[15] = 10% FCS, value in parentheses, read-out: MIC S. pyogenes +FCS
[16] = value in parentheses, read-out: MIC S. pyogenes

Row | SMILES | Selectivity MRSA (MRSA (S.aureus 13709)) | MIC (MRSA (S.aureus 13709); [2]) [mg/L] | MIC (MRSA (S.aureus 13709); [3]) [µM] | MIC (MRSA (S.aureus 13709); [4]) [µM] | MIC (MRSA (S.aureus 13709); [5]) [mg/L] | Selectivity (h/Sp) (S. pyogenes DHFR) | IC50 (S. aureus DHFR; [6]) [nM] | IC50 (HepG2 cells) [µM] | IC50 (MCF-10 cells; [7]) [µM] | IC50 (Human DHFR; [8]) [nM] | Selectivity S. pyogenes (Streptococcus pyogenes) | MIC (Streptococcus pyogenes; [9]) [mg/L] | MIC (Streptococcus pyogenes; [10]) [µM] | MIC (Streptococcus pyogenes; [11]) [µM] | MIC (Streptococcus pyogenes; [12]) [mg/L] | Selectivity (h/Sa) (S. aureus DHFR; IC50 (human)/IC50 (pathogen)) | MIC MRSA (MRSA (S.aureus 13709)) [mg/L] | MIC (MRSA (S.aureus 13709); [14]) [µM] | IC50 (S. pyogenes DHFR) [nM] | MIC S. pyogenes (Streptococcus pyogenes) [mg/L] | other results
1 | CN[C@H](CC(C)C)C(=O)N[C@H]1C(=O)N[C@@H](CC(N)=O)C(=O)N[C@H]2C(=O)N[C@H]3C(=O)N[C@H](C(=O)N[C@H](C(=O)O)c4cc(O)cc(O)c4-c4cc3ccc4O)[C@H](O)c3ccc(c(Cl)c3)Oc3cc2cc(c3O[C@@H]2O[C@H](CO)[C@@H](O)[C@H](O)[C@H]2O[C@H]2C[C@](C)(N)[C@H](O)[C@H](C)O2)Oc2ccc(cc2Cl)[C@H]1O [Vancomycin, reference compound] | – | – | – | – | – | – | – | – | – | – | – | – | – | – | – | – | – | – | – | – | MIC (VISA Mu50): 8 mg/L (≈ 5.52 µM); MIC (hVISA Mu3): 3 mg/L (≈ 2.07 µM); MIC (USA100 HA-MRSA; read-out: MIC USA100 HA-MRSA, clinical isolate, USA100): 1 mg/L (≈ 0.69 µM); MIC (USA100 HA-MRSA; read-out: MIC USA100 HA-MRSA, clinical isolate, first USA100 column): 0.5 mg/L (≈ 0.345 µM); MIC (USA100 HA-MRSA; read-out: MIC USA100 HA-MRSA, clinical isolate, third USA100 column): 1 mg/L (≈ 0.69 µM); MIC [1]: 2 mg/L (≈ 1.38 µM); MIC (USA300 CA-MRSA; Staphylococcus aureus, read-out: MIC USA300 CA-MRSA): 1 mg/L (≈ 0.69 µM); MIC USA300 CA-MRSA (USA300 CA-MRSA; clinical isolate, USA300): 1 mg/L (≈ 0.69 µM); MIC (HA-MRSA): 1 mg/L (≈ 0.69 µM)
2 | COc1ccc(-c2ccccc2)cc1C(C)C#Cc1c(C)nc(N)nc1N (stereo not drawn) [Compound 10] | 19 | 11.4 | 32 | 2 | 0.72 | 4 | 75 ± 4 | 94 | 38 | 97 ± 10 | 76 | 5.7 | 16 | 0.5 | 0.18 | – | – | – | – | – | Selectivity (h/Sa) (S. aureus DHFR): 1.3
3 | CCc1nc(N)nc(N)c1C#CC(C)c1cc(-c2ccccc2)ccc1OC (stereo not drawn) [Compound 11] | 27 | 11.9 | 32 | 2 | 0.74 | 4 | 67 ± 5.5 | 77 | 54 | 100 ± 10 | 27 | 6 | 16 | 2 | 0.74 | 1.5 | – | – | – | – | –
4 | CCc1nc(N)nc(N)c1C#CCc1cc(OC)cc(-c2ccccc2)c1 [Compound 9] | – | – | – | – | – | 3 | 59 ± 2.3 | – | – | 140 ± 1 | – | – | – | – | – | 2.4 | 0.18 (≈ 0.502 µM) | 0.5 | 52 ± 1.7 | 0.18 (≈ 0.502 µM) | MIC MRSA +FCS (MRSA (S.aureus 13709); 10% fetal calf serum): 1.4 mg/L (≈ 3.91 µM); MIC (MRSA (S.aureus 13709); [13]): 4 µM; IC50 (MCF-10 cells; cytotoxicity, 4 h incubation): 199 µM; MIC S. pyogenes +FCS (Streptococcus pyogenes; 10% FCS): 0.72 mg/L (≈ 2.01 µM); MIC (Streptococcus pyogenes; [15]): 2 µM; MIC (Streptococcus pyogenes; [16]): 0.5 µM
5 | CCc1nc(N)nc(N)c1C#CCc1cccc(-c2ccccc2)c1 [Compound 8] | – | – | – | – | – | 11 | 28 ± 1.7 | – | – | 290 ± 36 | – | – | – | – | – | 10 | 0.66 (≈ 2.01 µM) | 2 | 26 ± 1.7 | 0.66 (≈ 2.01 µM) | MIC MRSA +FCS (MRSA (S.aureus 13709); 10% fetal calf serum): 5.2 mg/L (≈ 15.8 µM); MIC (MRSA (S.aureus 13709); [13]): 16 µM; IC50 (MCF-10 cells; cytotoxicity, 4 h incubation): 32 µM; MIC S. pyogenes +FCS (Streptococcus pyogenes; 10% FCS): 2.6 mg/L (≈ 7.92 µM); MIC (Streptococcus pyogenes; [15]): 8 µM; MIC (Streptococcus pyogenes; [16]): 2 µM
6 | COc1cc(-c2ccc(C)cc2)cc(C(C)C#Cc2c(C)nc(N)nc2N)c1 (racemic) [Compound 2] | – | – | – | – | – | – | 410 ± 36 | – | – | – | – | – | – | – | – | – | 0.71 (≈ 1.91 µM) | 2 | 350 ± 44 | 0.024 (≈ 0.0644 µM) | IC50 (MCF-10 cells; cytotoxicity, 4 h incubation): 55 µM; MIC (Streptococcus pyogenes; [16]): 0.064 µM
7 | COc1cc(-c2cc(C)cc(C)c2)cc(C(C)C#Cc2c(C)nc(N)nc2N)c1 (stereo not drawn) [Compound 1] | – | – | – | 16 | 5.8 | – | – | – | – | – | – | – | – | 0.25 | 0.1 | – | 5.76 (≈ 14.9 µM) | – | – | 0.097 (≈ 0.251 µM) | IC50 (MCF-10 cells; Homo sapiens, MCF10, 4 h): 47 µM
8 | CCc1nc(N)nc(N)c1C#CCc1cccc(-c2cncnc2)c1 [Compound 37] | >1,000 | 0.16 | 0.5 | 0.5 | 0.16 | 7 | – | – | > 500 | – | >1,000 | 0.16 | 0.5 | 0.5 | 0.16 | 5 | – | – | – | – | IC50 (S. aureus DHFR): 35 ± 1.1 nM; IC50 (Human DHFR): 160 ± 13 nM
9 | COc1cc(C(C)C#Cc2c(C)nc(N)nc2N)cc(N2CCOCC2)c1 (stereo not drawn) [Compound 31] | 116 | 2.94 | 8 | 4 | 1.5 | 15 | 29 ± 2 | 494 | 462 | 400 ± 40 | 58 | 2.94 | 8 | 8 | 2.94 | 14 | – | – | – | – | –
10 | CCc1nc(N)nc(N)c1C#CCc1cc(-c2ccccc2)ccc1OC [Compound 7] | 67 | – | – | 1 | 0.18 | 51 | 2.4 ± 0.2 | – | 67 | 300 ± 10 | 4,187 | – | – | 0.016 | 0.006 | 125 | – | – | – | – | fold improvement in potency against S. aureus DHFR (S. aureus DHFR; relative to compound 1): 18 fold
